One may read the Ki as the dissociation constant of the complex between target and ligand, obtained from inhibition or displacement.

The values that follow come from BindingDB's records for doi:10.1021/jm950759z (Cooperation Pharmaceutique Fran?aise, 1997).

This test in a line: Inhibition of [3H]spiperone binding to Dopamine receptor D3 in bovine cortex.

On to `O=C1CC2(CCCC2)CC(=O)N1CCCCN1CCN(c2ncccn2)CC1` [BUSPAR], for which the Ki was 0.66 µM.
